Test results taken from patent US20080269121A1, “Methods and Compositions Involving A1c Subunit of L-Type Calcium Channels in Smooth Muscle Cells” (The Board of Regents of the University of Texas System, priority 2005, published 2008).
“Also recorded” adds a separate entry of the source.

Columns and labels:
[1] = system: α1C subunit of L-type Ca^2+ channels; assay: α1C protein expression (Western immunoblotting); format: cell-based, human
From the text: (§1) Primary cultures of HCCSMC: Human tissue was obtained from the descending and sigmoid colons with approval of the University of Texas Medical Branch Institutional Review Board from disease free margins of resected segments from patients undergoing surgery for colon cancer. The circular muscle layer was separated from the taenia coli and lamina propria with a tissue slicer. The circular muscle layer was collected in ice-cold HEPES buffer (in mM: 120 NaCl, 2.6 KH2S04, 4 KCl, 2 CaCl2, 0.6 MgCl2, 25 HEPES, 14 glucose and 2.1% essential amino acid mixture, pH 7.4). Two successive digestions with papain and collagenase, as described previously by Shi and Sarna, were used to disperse smooth muscle cells. The cells were cultured in RPMI 1640 (Gibco/Invitrogen, Carlsbad, Calif.) supplemented with 10% fetal bovine serum in the presence of 100 units/mL of penicillin G, 100 μg/mL of streptomycin sulfate and 0.25 μg/mL of amphoteracin B. The culture medium was changed every three days. Cells in passages 3 to 5 were used in all experiments. All cells were cultured in serum-free medium for at least 15 h prior to experiments to eliminate the possible effects of growth factors. […] The cultures of colonic smooth muscle cells retain their contractile phenotype. Each experiment used cells or muscle strips from at least three different subjects.
Western immunoblotting. Each lane is loaded with 10 μg protein and size-separated on a 10% SDS polyacrylamide gel. After blotting, the nitrocellulose membranes are blocked with 10% non-fat dried milk at 4° C. overnight. The blots are incubated with appropriate dilution of the antibody at 4° C. overnight and appropriate dilution of designated secondary antibody at room temperature for 1 h. β-actin is used as internal control.

[2] = system: cAMP; assay: cAMP levels in HCCSMC; format: cell-based, human
From the text: as §1

[3] = system: human colonic circular muscle strips; assay: Muscle bath: contractile response of human colonic circular muscle strips; format: cell-based
Description: Muscle bath experiments. Pure circular muscle strips (2 mm×10 mm) are prepared from resected human colon segments. The strips are mounted in 5 ml baths filled with carbonated Krebs solution (in mM: 118 NaCl, 4.7 KCl, 2.5 CaCl2, 1 NaH2PO4, 1-2 MgCl2, 11 D-glucose, and 25 NaHCO3) at 37° C. (Siebenlist et al., 1994; Barnes and Karin, 1997). The muscle strips are equilibrated for 1 h at 1 g tension and then stretched until maximal response is obtained to 10^−4 m ACh. The bathing solution is replaced every 15 min. Contractions are measured by force transducers and analyzed by DATAQ (Akron, Ohio) software.
The protocol for transfection of sense and antisense oligonucleotides in freshly obtained muscle strips was similar to that in HCCSMC. The circular muscle layer was isolated from the fall thickness human colon, and sliced into 2 mm×10 mm muscle strips. The strips were incubated in RPMI 1640 without serum. The sense and antisense oligonucleotides (10 μM) were added into the medium for 24 h before incubation with 20 ng/mL TNFα for 24 h.

[4] = system: α1C1b promoter; assay: α1C1b promoter luciferase reporter activity in HCCSMC; format: cell-based, human
Description: Transient cell transfections and luciferase activity. FuGENE 6 (Roche, Mannheim, Germany) is used to transfect luciferase-expressing pGL2 constructs in HCCSMC. The cells in passage 4 are seeded into 12-well plates (Costar, Acton, Mass.) and grown to 70% to 80% confluency. Transfections are carried out by incubation of cells in each well with 1.5 μl of FuGENE 6, 0.5 μg of pGL2 construct, and 0.125 μg of pSEAP2 Control Vector (BD Biosciences Clontech, Palo Alto, Calif.) for 24 h as per manufacturer's instructions. The pSEAP2 Control Vector is co-transfected for normalization of data. The transfected cells were treated with stimulus or medium control and harvested after 24 hours. Twenty μl of the supernatant of the cell lysates are taken for the measurement of luciferase activity by a luminometer (Promega, Madison, Wis.). The SEAP activity is measured with a Clontech SEAP detection kit by following the manufacturer's instructions.
Promoter constructs, 5′-deletions, and site-directed mutagenesis. The promoter constructs of hα1c1b are prepared by PCR amplification of human genomic DNA (Roche, Indianapolis, Ind.) and digested partially with Hind III (Promega, Madison, Wis.) using the FailSafe PCR kit (Epicentre, Madison, Wis.). The PCR product is subcloned into pDrive Cloning Vector with the PCR Cloning^plus kit (Qiagen, Valencia, Calif.) and SURE 2 supercompetent cells (Stratagene, La Jolla, Calif.) and subsequently transferred to the luciferase expression plasmid pGL2-Basic Vector (Promega, Madison, Wis.). The deletion constructs are made using the full length promoter construct as a template in PCR reactions. The same methods and kits are used to subclone the sequenced PCR products into the pDrive and pGL2 vector. The site-directed mutagenesis is carried out using QuikChange® II XL Site-Directed Mutagenesis Kit from Stratagene (La Jolla, Calif.), as per manufacturer's instructions.

[5] = system: p38; assay: MAP kinase phosphorylation: p38; format: cell-based

vasoactive intestinal polypeptide [VIP]
increase of α1C protein ([1]; adult human colonic circular smooth muscle cells): about 100%
effect on TNFα suppression of α1C protein ([1]; muscle strip tissue, FIG. 14 top): minimized
duration of elevated cAMP levels [2]: at least 24 h
intercellular cAMP levels ([2]; 24 h treatment): elevated throughout the 24 h period
effect on TNFα suppression of contractile response to ACh ([3]; muscle strips, treatment before/with TNFα): significantly reduces the suppression; also recorded: partially reversed the suppression
contractile response of circular muscle strips to ACh ([3]; strips incubated 24 h, organ bath): enhanced the contractile response to ACh and KCl; also recorded: increased their contractile response to ACh; also recorded: enhanced it
α1C1b promoter reporter (luciferase) activity ([4]; substance by itself): enhanced in a concentration-dependent manner; also recorded: concentration-dependently increased; also recorded: enhanced promoter activity in normal cells
effect on suppression of α1C1b promoter activity by TNFα ([4]; with TNFα): significantly blocked this reduction; also recorded: partially blocked the suppression
phosphorylation of p38 [5]: time-dependently dephosphorylated
